Several values for one entry are separate records, joined by “and”; a condition that tells them apart may be missing. Identical values can stand only once. Like-named read-outs stand apart in the source and are kept apart here.
Columns and labels:
[1] = PAMPA intrinsic permeability, cited from earlier work
[2] = male, CF-1, mouse, in vivo, 1 µM, pH 7.4
[3] = for Pgp Mutant Kin / logPS(obs): male, pH 7.4; for logPS(obs) / brain uptake clearance: in vivo
P-glycoprotein (Pgp) [4] = settings: male, CF-1, mouse, not told, pH 7.4
P-glycoprotein (Pgp) [5] = test: Pgp effect: ratio of Pgp-deficient to wild-type uptake clearance; settings: for Pgp Effect: ratio of Pgp-deficient Kin to wild-type Kin, CF-1 mice
[6] = cited from earlier work
[7] = cited from earlier work; remark: listed apart in the source
[8] = rat, cited from earlier work
[9] = rodent and comment not printed ref Fernstermacher 1989; cited from earlier work
[10] = rat, 5-50uM self-inhibition, training set ref Summerfield et al. 2007

Structure (SMILES) | Wild-Type Kin [2] [mL/100g/min] | Pgp Mutant Kin ([3]; CF-1, mouse, 1 µM) [mL/100g/min] | logPS(obs) ([3]; CF-1, mouse, 1 µM) [mL/g/s] | logPo^PAMPA | Pgp Effect (P-glycoprotein (Pgp) [5]) | further results
CC(C)(C)c1ccc(C(O)CCCN2CCC(C(O)(c3ccccc3)c3ccccc3)CC2)cc1 (stereo not drawn) [terfenadine] | 126 | 129 | −1.52 | – | – | logPo^PAMPA ([1]; ref Ruell et al. 2004, Avdeef et al. 2007): 2.63
COc1ccc2c3c1O[C@H]1C[C@@H](O)C=C[C@@]31CCN(C)C2 [galanthamine] | – | – | – | −3.15 | – | Pgp Effect (P-glycoprotein (Pgp) [4]): 1.1; logPS(obs) ([3]; mouse): −2.46 mL/g/s; Pgp Mutant Kin ([3]; mouse): 20 mL/100g/min
O=C1CC2(CCCC2)CC(=O)N1CCCCN1CCN(c2ncccn2)CC1 [buspirone] | 325 | 341 | – | – | 1.0 | –
COc1ccc(CCN2CCC(Nc3nc4ccccc4n3Cc3ccc(F)cc3)CC2)cc1 [astemizole] | 112 | 123 | −1.55 | – | – | logPo^PAMPA ([1]; ref Bendels et al. 2006): 1.00; Pgp Effect (P-glycoprotein (Pgp) [4]): 1.1
CN/C(=N/CCSCc1nc[nH]c1C)NC#N [cimetidine] | – | – | – | – | – | logPo^PAMPA ([1]; ref Avdeef et al. 2005): −6.20; logPS(obs) ([6]; mouse ref Murakami et al. 2000): −4.10 mL/g/s; logPS(obs) ([7]; rat ref Murakami et al. 2000): −4.05 mL/g/s
CC(C)(C)NC(=O)[C@@H]1C[C@@H]2CCCC[C@@H]2CN1C[C@@H](O)[C@H](Cc1ccccc1)NC(=O)[C@H](CC(N)=O)NC(=O)c1ccc2ccccc2n1 [saquinavir] | 2.9 | 11 | −2.73 | −3.69 | – | –
Cc1cn([C@H]2C[C@H](N=[N+]=[N-])[C@@H](CO)O2)c(=O)[nH]c1=O [zidovudine] | – | – | – | −5.79 | – | logPS(obs) ([8]; i.v. ref Wu et al. 1998): −3.99 mL/g/s
CN[C@H]1CC[C@@H](c2ccc(Cl)c(Cl)c2)c2ccccc21 [sertraline] | – | – | – | 2.10 | 1.0 | –
O=C1NC(=O)C(c2ccccc2)(c2ccccc2)N1 [phenytoin] | – | – | – | – | – | logPo^PAMPA ([1]; ref Ruell et al. 2004): −4.32; logPS(obs) [9]: −2.30 mL/g/s; logPS(obs) ([7]; rat ref Liu et al. 2004): −2.20 mL/g/s; logPS(obs) [7, 10]: −2.07 mL/g/s
Cn1c(=O)c2[nH]cnc2n(C)c1=O [theophylline] | – | – | – | – | – | logPo^PAMPA ([1]; ref Avdeef et al. 2006): −5.99; logPS(obs) ([6]; mouse ref Murakami et al. 2000): −3.26 mL/g/s; logPS(obs) ([7]; rat ref Liu et al. 2004): −2.90 mL/g/s; logPS(obs) ([7]; rat ref Murakami et al. 2000): −2.81 mL/g/s
N[C@H](Cc1ccc(F)cc1)C(=O)O [p-F-D-phenylalanine] | – | – | – | – | 1.1 | –
N[C@@H](Cc1ccc(F)cc1)C(=O)O [p-F-L-phenylalanine] | – | – | – | – | 1.1 | –
CN(C)CCCN1c2ccccc2Sc2ccc(Cl)cc21 [chlorpromazine] | 300 | 295 | −1.08 | – | 1.0 | logPo^PAMPA ([1]; ref Avdeef et al. 2004, Ruell et al. 2004): 1.62; logPS(obs) [7, 10]: −1.20 mL/g/s; brain uptake clearance ([3]; mouse): > 255 mL/100 g/min
CCCN1C[C@H](C)N([C@H](c2ccc(C(=O)N(CC)CC)cc2)c2cccc(OC)c2)C[C@H]1C [SNC121] | – | – | – | −1.24 | – | logPS(obs) ([6]; mouse, in vivo): −1.44 mL/g/s; Pgp effect ratios (P-glycoprotein (Pgp) [5]; compounds with down-step in rank classification for wild-type PS values (Fig. 3)): 8.6
CN1CC(=O)NC1=N [creatinine] | – | – | – | −7.52 | – | logPS(obs) ([8]; i.v. ref Levin 1980): −4.55 mL/g/s and −4.70 mL/g/s
CN(C)CCC=C1c2ccccc2CCc2ccccc21 [amitriptyline] | 335 | 408 | −0.66 | – | 1.2 | logPo^PAMPA ([1]; ref Avdeef et al. 2006): 1.30; logPS(obs) [7, 10]: −1.05 mL/g/s; brain uptake clearance ([3]; mouse): > 255 mL/100 g/min
CC[C@]1(O)C[C@H]2CN(CCc3c([nH]c4ccccc34)[C@@](C(=O)OC)(c3cc4c(cc3OC)N(C=O)[C@H]3[C@@](O)(C(=O)OC)[C@H](OC(C)=O)[C@]5(CC)C=CCN6CC[C@]43[C@@H]65)C2)C1 [vincristine] | – | – | – | −2.72 | – | logPS(obs) ([6]; mouse ref Murakami et al. 2000): −4.12 mL/g/s; logPS(obs) ([6]; mouse, mdr1a(−/−) ref Cisternino et al. 2001): −3.82 mL/g/s; logPS(obs) ([6]; mouse, mrp1(−/−), footnote x ref Cisternino et al. 2003): −4.25 mL/g/s; logPS(obs) [9]: −4.00 mL/g/s; logPS(obs) ([7]; rat ref Greig et al. 1990): −3.91 mL/g/s; logPS(obs) ([7]; rat ref Murakami et al. 2000): −4.10 mL/g/s
CN1CCN(C2=Nc3cc(Cl)ccc3Nc3ccccc32)CC1 [clozapine] | 118 | 90 | −1.73 | −0.39 | – | –
CC(C)(C)NC(=O)[C@@H]1CN(Cc2cccnc2)CCN1C[C@@H](O)C[C@@H](Cc1ccccc1)C(=O)N[C@H]1c2ccccc2C[C@H]1O [indinavir] | 0.52 | – | – | – | – | –
CCCN(CCC)S(=O)(=O)c1ccc(C(=O)O)cc1 [probenecid] | 0.069 | 0.098 | −4.79 | – | 1.4 | logPo^PAMPA ([1]; ref Ruell et al. 2004): −1.83
COc1ccc(Cl)cc1C(=O)NCCc1ccc(S(=O)(=O)NC(=O)NC2CCCCC2)cc1 [glibenclamide] | – | – | – | – | – | logPo^PAMPA ([1]; ref Bendels et al. 2006): −2.54; logPS(obs) ([6]; mouse ref Murakami et al. 2000): −3.27 mL/g/s; logPS(obs) ([7]; rat ref Murakami et al. 2000): −2.77 mL/g/s
NC(=O)N1c2ccccc2C=Cc2ccccc21 [carbamazepine] | 173 | 184 | −1.26 | −3.73 | 1.1 | logPS(obs) [7, 10]: −1.75 mL/g/s
NCC1(CC(=O)O)CCCCC1 [gabapentin] | – | – | – | −3.36 | – | Pgp Effect (P-glycoprotein (Pgp) [4]): 1.7; logPS(obs) ([7]; rat, in vivo): −2.56 mL/g/s; logPS(obs) ([3]; mouse): −2.34 mL/g/s; Pgp Mutant Kin ([3]; mouse): 26 mL/100g/min

Source: paper PMC2747801 (European journal of pharmaceutical sciences : official …, 2009)
